{"source": "PubChem BioAssay (NCI)", "experiment_in_all_cases": "growth of human tumour cells (NCI), 48 h", "key": {"EKVX NSCLC": {"test_system": "EKVX NSCLC"}, "HT29 colon": {"test_system": "HT29 colon"}, "IGROV1 ovarian": {"test_system": "IGROV1 ovarian"}, "KM12 colon": {"test_system": "KM12 colon"}, "MALME-3M melanoma": {"test_system": "MALME-3M melanoma"}, "OVCAR-5 ovarian": {"test_system": "OVCAR-5 ovarian"}, "SF-295 CNS": {"test_system": "SF-295 CNS"}, "SK-OV-3 ovarian": {"test_system": "SK-OV-3 ovarian"}, "SNB-19 CNS": {"test_system": "SNB-19 CNS"}, "HCC-2998 colon": {"test_system": "HCC-2998 colon"}}, "note": "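Values below derive from 48-hour exposures of cells grown in 96-well plates, with endpoints linearly interpolated between the two concentrations bracketing the appropriate inhibition level. GI50 = concentration required for 50% inhibition of growth. TGI: concentration producing complete growth inhibition.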"}
{"smiles": "Clc1ccc(N=c2oc3ccccc3cc2-c2nc3ccccc3[nH]2)c(Cl)c1", "values": [{"measurement": "TGI", "setting": "EKVX NSCLC", "value": "> 100", "unit": "µM"}, {"measurement": "TGI", "setting": "HT29 colon", "value": "> 100", "unit": "µM"}, {"measurement": "TGI", "setting": "IGROV1 ovarian", "value": "> 100", "unit": "µM"}, {"measurement": "TGI", "setting": "KM12 colon", "value": "> 100", "unit": "µM"}, {"measurement": "TGI", "setting": "MALME-3M melanoma", "value": "> 100", "unit": "µM"}, {"measurement": "TGI", "setting": "OVCAR-5 ovarian", "value": "> 100", "unit": "µM"}, {"measurement": "TGI", "setting": "SF-295 CNS", "value": "> 100", "unit": "µM"}, {"measurement": "TGI", "setting": "SK-OV-3 ovarian", "value": "> 100", "unit": "µM"}, {"measurement": "TGI", "setting": "SNB-19 CNS", "value": "> 100", "unit": "µM"}]}
{"smiles": "NCCCCNCCCNC(=O)c1nc(-c2csc(CCN)n2)sc1Cl", "values": [{"measurement": "TGI", "setting": "EKVX NSCLC", "value": "> 100", "unit": "µM"}, {"measurement": "TGI", "setting": "HCC-2998 colon", "value": "> 100", "unit": "µM"}, {"measurement": "TGI", "setting": "HT29 colon", "value": "> 100", "unit": "µM"}, {"measurement": "TGI", "setting": "IGROV1 ovarian", "value": "> 100", "unit": "µM"}, {"measurement": "TGI", "setting": "KM12 colon", "value": "> 100", "unit": "µM"}, {"measurement": "TGI", "setting": "MALME-3M melanoma", "value": "> 100", "unit": "µM"}, {"measurement": "TGI", "setting": "OVCAR-5 ovarian", "value": "> 100", "unit": "µM"}, {"measurement": "TGI", "setting": "SF-295 CNS", "value": "> 100", "unit": "µM"}, {"measurement": "TGI", "setting": "SK-OV-3 ovarian", "value": "> 100", "unit": "µM"}, {"measurement": "TGI", "setting": "SNB-19 CNS", "value": "> 100", "unit": "µM"}]}
{"smiles": "COc1cc(S(=O)(=O)Nc2ccc(C3=NNC(c4ccccc4)C3)cc2)ccc1F", "note": "(centres undefined)", "values": [{"measurement": "GI50", "setting": "EKVX NSCLC", "value": 17.8, "unit": "µM"}, {"measurement": "TGI", "setting": "EKVX NSCLC", "value": "> 100", "unit": "µM"}, {"measurement": "GI50", "setting": "HCC-2998 colon", "value": 54.4, "unit": "µM"}, {"measurement": "TGI", "setting": "HCC-2998 colon", "value": "> 100", "unit": "µM"}, {"measurement": "GI50", "setting": "HT29 colon", "value": 59.1, "unit": "µM"}, {"measurement": "TGI", "setting": "HT29 colon", "value": "> 100", "unit": "µM"}, {"measurement": "GI50", "setting": "IGROV1 ovarian", "value": 93.8, "unit": "µM"}, {"measurement": "TGI", "setting": "IGROV1 ovarian", "value": "> 100", "unit": "µM"}, {"measurement": "GI50", "setting": "KM12 colon", "value": 18, "unit": "µM"}, {"measurement": "TGI", "setting": "KM12 colon", "value": "> 100", "unit": "µM"}, {"measurement": "GI50", "setting": "MALME-3M melanoma", "value": 13.2, "unit": "µM"}, {"measurement": "TGI", "setting": "MALME-3M melanoma", "value": 49.8, "unit": "µM"}, {"measurement": "GI50", "setting": "OVCAR-5 ovarian", "value": 66.8, "unit": "µM"}, {"measurement": "TGI", "setting": "OVCAR-5 ovarian", "value": "> 100", "unit": "µM"}, {"measurement": "GI50", "setting": "SF-295 CNS", "value": 28.5, "unit": "µM"}, {"measurement": "TGI", "setting": "SF-295 CNS", "value": "> 100", "unit": "µM"}, {"measurement": "GI50", "setting": "SK-OV-3 ovarian", "value": "> 100", "unit": "µM"}, {"measurement": "TGI", "setting": "SK-OV-3 ovarian", "value": "> 100", "unit": "µM"}, {"measurement": "GI50", "setting": "SNB-19 CNS", "value": "> 100", "unit": "µM"}, {"measurement": "TGI", "setting": "SNB-19 CNS", "value": "> 100", "unit": "µM"}]}
{"smiles": "COc1cc(/C=C2/N=C(c3ccccc3)N(C3=NNC4(C(=O)N3)c3ccccc3-c3ccccc34)NC2=O)ccc1O", "values": [{"measurement": "GI50", "setting": "EKVX NSCLC", "value": 15, "unit": "µg/mL"}, {"measurement": "TGI", "setting": "EKVX NSCLC", "value": 15, "unit": "µg/mL"}, {"measurement": "GI50", "setting": "HT29 colon", "value": 27.7, "unit": "µg/mL"}, {"measurement": "TGI", "setting": "HT29 colon", "value": 49.1, "unit": "µg/mL"}, {"measurement": "GI50", "setting": "IGROV1 ovarian", "value": 30.4, "unit": "µg/mL"}, {"measurement": "TGI", "setting": "IGROV1 ovarian", "value": 63.3, "unit": "µg/mL"}, {"measurement": "GI50", "setting": "KM12 colon", "value": 22.7, "unit": "µg/mL"}, {"measurement": "TGI", "setting": "KM12 colon", "value": 42.9, "unit": "µg/mL"}, {"measurement": "GI50", "setting": "MALME-3M melanoma", "value": 26.5, "unit": "µg/mL"}, {"measurement": "TGI", "setting": "MALME-3M melanoma", "value": 57, "unit": "µg/mL"}, {"measurement": "GI50", "setting": "OVCAR-5 ovarian", "value": 44.6, "unit": "µg/mL"}, {"measurement": "TGI", "setting": "OVCAR-5 ovarian", "value": "> 150", "unit": "µg/mL"}, {"measurement": "GI50", "setting": "SF-295 CNS", "value": 19.7, "unit": "µg/mL"}, {"measurement": "TGI", "setting": "SF-295 CNS", "value": 42.5, "unit": "µg/mL"}, {"measurement": "GI50", "setting": "SK-OV-3 ovarian", "value": 19, "unit": "µg/mL"}, {"measurement": "TGI", "setting": "SK-OV-3 ovarian", "value": 37.8, "unit": "µg/mL"}, {"measurement": "GI50", "setting": "SNB-19 CNS", "value": 34.6, "unit": "µg/mL"}, {"measurement": "TGI", "setting": "SNB-19 CNS", "value": 87.3, "unit": "µg/mL"}]}
{"smiles": "C#CCn1c(=O)c(C#N)c(O)c2cc3ccccc3nc21", "values": [{"measurement": "TGI", "setting": "EKVX NSCLC", "value": "> 100", "unit": "µM"}, {"measurement": "TGI", "setting": "HCC-2998 colon", "value": "> 100", "unit": "µM"}, {"measurement": "TGI", "setting": "HT29 colon", "value": "> 100", "unit": "µM"}, {"measurement": "TGI", "setting": "IGROV1 ovarian", "value": "> 100", "unit": "µM"}, {"measurement": "TGI", "setting": "KM12 colon", "value": "> 100", "unit": "µM"}, {"measurement": "TGI", "setting": "MALME-3M melanoma", "value": "> 100", "unit": "µM"}, {"measurement": "TGI", "setting": "OVCAR-5 ovarian", "value": "> 100", "unit": "µM"}, {"measurement": "TGI", "setting": "SF-295 CNS", "value": "> 100", "unit": "µM"}, {"measurement": "TGI", "setting": "SK-OV-3 ovarian", "value": "> 100", "unit": "µM"}, {"measurement": "TGI", "setting": "SNB-19 CNS", "value": "> 100", "unit": "µM"}]}
{"smiles": "O=C(N[C@H]1c2ccsc2/C(=N/O)[C@H]1O)C(F)(F)F", "values": [{"measurement": "TGI", "setting": "EKVX NSCLC", "value": "> 100", "unit": "µM"}, {"measurement": "TGI", "setting": "HCC-2998 colon", "value": "> 100", "unit": "µM"}, {"measurement": "TGI", "setting": "HT29 colon", "value": "> 100", "unit": "µM"}, {"measurement": "TGI", "setting": "IGROV1 ovarian", "value": "> 100", "unit": "µM"}, {"measurement": "TGI", "setting": "MALME-3M melanoma", "value": "> 100", "unit": "µM"}, {"measurement": "TGI", "setting": "OVCAR-5 ovarian", "value": "> 100", "unit": "µM"}, {"measurement": "TGI", "setting": "SF-295 CNS", "value": "> 100", "unit": "µM"}, {"measurement": "TGI", "setting": "SK-OV-3 ovarian", "value": "> 100", "unit": "µM"}, {"measurement": "TGI", "setting": "SNB-19 CNS", "value": "> 100", "unit": "µM"}]}
{"smiles": "CC1(Cl)CC2C(CC1Sc1nnnn1-c1ccccc1)C2(C)C", "note": "(centres undefined)", "values": [{"measurement": "TGI", "setting": "EKVX NSCLC", "value": "> 100", "unit": "µM"}, {"measurement": "TGI", "setting": "HCC-2998 colon", "value": "> 100", "unit": "µM"}, {"measurement": "TGI", "setting": "HT29 colon", "value": "> 100", "unit": "µM"}, {"measurement": "TGI", "setting": "IGROV1 ovarian", "value": "> 100", "unit": "µM"}, {"measurement": "TGI", "setting": "KM12 colon", "value": "> 100", "unit": "µM"}, {"measurement": "TGI", "setting": "OVCAR-5 ovarian", "value": "> 100", "unit": "µM"}, {"measurement": "TGI", "setting": "SF-295 CNS", "value": "> 100", "unit": "µM"}, {"measurement": "TGI", "setting": "SNB-19 CNS", "value": "> 100", "unit": "µM"}]}
{"smiles": "CC(=O)Oc1ccc(C2COc3cc(OC(C)=O)c(OC(C)=O)cc3C2)cc1", "note": "(centres undefined)", "values": [{"measurement": "TGI", "setting": "EKVX NSCLC", "value": 32, "unit": "µM"}, {"measurement": "TGI", "setting": "HCC-2998 colon", "value": 46.8, "unit": "µM"}, {"measurement": "TGI", "setting": "HT29 colon", "value": "> 81.5", "unit": "µM"}, {"measurement": "TGI", "setting": "IGROV1 ovarian", "value": 31.2, "unit": "µM"}, {"measurement": "TGI", "setting": "KM12 colon", "value": 69.5, "unit": "µM"}, {"measurement": "TGI", "setting": "MALME-3M melanoma", "value": 31, "unit": "µM"}, {"measurement": "TGI", "setting": "OVCAR-5 ovarian", "value": "> 97.1", "unit": "µM"}, {"measurement": "TGI", "setting": "SF-295 CNS", "value": 58.5, "unit": "µM"}, {"measurement": "TGI", "setting": "SK-OV-3 ovarian", "value": 38.7, "unit": "µM"}, {"measurement": "TGI", "setting": "SNB-19 CNS", "value": "> 100", "unit": "µM"}]}
